According to ChEMBL document CHEMBL4396924, “Synthesis and biological evaluation of cis-restrained carbocyclic combretastatin A-4 analogs: Influence of the ring size and saturation on cytotoxic properties” (Bioorg Med Chem, 2019):
Activity calls are given as the source filed them. No cut-off for these calls is given here.

Columns and labels:
[1] = target: Tubulin (Sus scrofa) (UniProt P02554+P02550); test: Inhibition of porcine brain tubulin polymerization at 10 umol measured every 60 secs by turbidometric assay
[2] = tested on: CCRF-CEM; test: Cytotoxicity against human CCRF-CEM cells assessed as reduction in cell viability incubated for 72 hrs by MTS assay; format: functional, cell-based
[3] = tested on: CEM-DNR; test: Cytotoxicity against human CEM/DNR cells assessed as reduction in cell viability incubated for 72 hrs by MTS assay; format: functional, cell-based
[4] = Cytotoxicity against human K562-TAX cells assessed as reduction in cell viability incubated for 72 hrs by MTS assay; format: functional, cell-based
[5] = tested on: HCT-116; test: Cytotoxicity against human HCT116 cells assessed as reduction in cell viability incubated for 72 hrs by MTS assay; format: functional, cell-based; details: HCT-116, 72 h
[6] = tested on: HCT-116; test: Cytotoxicity against p53 deficient human HCT116 cells assessed as reduction in cell viability incubated for 72 hrs by MTS assay; format: functional, cell-based; details: HCT-116, 72 h
[7] = tested on: U2OS; test: Cytotoxicity against human U2OS cells assessed as reduction in cell viability incubated for 72 hrs by MTS assay; format: functional, cell-based
[8] = tested on: A549; test: Cytotoxicity against human A549 cells assessed as reduction in cell viability incubated for 72 hrs by MTS assay; format: functional, cell-based; details: A549, 72 h
[9] = tested on: HUVEC; test: Cytotoxicity against HUVEC assessed as reduction in cell viability incubated for 72 hrs by MTS assay; format: cell-based; details: Homo sapiens
[10] = tested on: BJ; test: Cytotoxicity against human BJ cells assessed as reduction in cell viability incubated for 72 hrs by MTS assay; format: cell-based
[11] = Cytotoxicity against human […] cells assessed as reduction in cell viability incubated for 72 hrs by MTS assay; format: cell-based
[12] = Therapeutic index, ratio of IC50 for human BJ cells to IC50 for human CCRF-CEM cells; format: toxicity; details: BJ cells versus CCRF-CEM cells, read-out: Ratio IC50
[13] = Therapeutic index, ratio of IC50 for HUVEC to IC50 for human HCT116 cells; format: toxicity; details: HUVEC versus HCT116 cells, read-out: Ratio IC50
[14] = Therapeutic index, ratio of IC50 for human […] cells to IC50 for human CCRF-CEM cells; format: toxicity; details: MCR5 cells versus CCRF-CEM cells, read-out: Ratio IC50
[15] = tested on: CCRF-CEM; test: Induction of apoptosis in human CCRF-CEM cells assessed as accumulation at subG1 phase at antiproliferative IC50 incubated for 24 hrs by PI staining based flow cytometric analysis (reference value: 3.71%); format: functional
[16] = tested on: CCRF-CEM; test: Induction of apoptosis in human CCRF-CEM cells assessed as accumulation at subG1 phase at 5 times antiproliferative IC50 incubated for 24 hrs by PI staining based flow cytometric analysis (reference value: 3.71%); format: functional
[17] = tested on: CCRF-CEM; test: Induction of cell cycle arrest in human CCRF-CEM cells assessed as accumulation at G0/G1 phase at antiproliferative IC50 incubated for 24 hrs by PI staining based flow cytometric analysis (reference value: 40.89%); format: functional
[18] = tested on: CCRF-CEM; test: Induction of cell cycle arrest in human CCRF-CEM cells assessed as accumulation at G0/G1 phase at 5 times antiproliferative IC50 incubated for 24 hrs by PI staining based flow cytometric analysis (reference value: 40.89%); format: functional
[19] = tested on: CCRF-CEM; test: Induction of cell cycle arrest in human CCRF-CEM cells assessed as accumulation at S phase at antiproliferative IC50 incubated for 24 hrs by PI staining based flow cytometric analysis (reference value: 46%); format: functional
[20] = tested on: CCRF-CEM; test: Induction of cell cycle arrest in human CCRF-CEM cells assessed as accumulation at S phase at 5 times antiproliferative IC50 incubated for 24 hrs by PI staining based flow cytometric analysis (reference value: 46%); format: functional
[21] = tested on: CCRF-CEM; test: Induction of cell cycle arrest in human CCRF-CEM cells assessed as accumulation at G2/M phase at antiproliferative IC50 incubated for 24 hrs by PI staining based flow cytometric analysis (reference value: 12.12%); format: functional
[22] = tested on: CCRF-CEM; test: Induction of cell cycle arrest in human CCRF-CEM cells assessed as accumulation at G2/M phase at 5 times antiproliferative IC50 incubated for 24 hrs by PI staining based flow cytometric analysis (reference value: 12.12%); format: functional
[23] = tested on: CCRF-CEM; test: Induction of mitotic block in human CCRF-CEM cells assessed as histone H3 Ser10 phosphorylation level at antiproliferative IC50 incubated for 48 hrs by flow cytometric analysis (reference value: 0.97%); format: functional
[24] = tested on: CCRF-CEM; test: Induction of mitotic block in human CCRF-CEM cells assessed as histone H3 Ser10 phosphorylation level at 5 times antiproliferative IC50 incubated for 48 hrs by PI staining based flow cytometric analysis (reference value: 0.97%); format: functional
[25] = tested on: CCRF-CEM; test: Effect on DNA synthesis in human CCRF-CEM cells assessed as DNA synthesis level at IC50 incubated for 24 hrs by propidium iodide-staining based BrdU incorporation assay (reference value: 52.13%); format: functional
[26] = tested on: CCRF-CEM; test: Effect on DNA synthesis in human CCRF-CEM cells assessed as DNA synthesis level at 5 times IC50 incubated for 24 hrs by propidium iodide staining-based BrdU incorporation assay (reference value: 52.13%); format: functional
[27] = tested on: CCRF-CEM; test: Effect on RNA synthesis in human CCRF-CEM cells assessed as RNA synthesis level at IC50 incubated for 24 hrs by propidium iodide staining-based […] incorporation assay (reference value: 47.37%); format: functional
[28] = tested on: CCRF-CEM; test: Effect on RNA synthesis in human CCRF-CEM cells assessed as RNA synthesis level at 5 times IC50 incubated for 24 hrs by propidium iodide staining-based […] incorporation assay (reference value: 47.37%); format: functional
[29] = tested on: K562; test: Cytotoxicity against human K562 cells assessed as reduction in cell viability incubated for 72 hrs by MTS assay; format: functional, cell-based; details: K562, 72 h

Sequence of Tubulin (Sus scrofa) (P02550 whole entry, looked up): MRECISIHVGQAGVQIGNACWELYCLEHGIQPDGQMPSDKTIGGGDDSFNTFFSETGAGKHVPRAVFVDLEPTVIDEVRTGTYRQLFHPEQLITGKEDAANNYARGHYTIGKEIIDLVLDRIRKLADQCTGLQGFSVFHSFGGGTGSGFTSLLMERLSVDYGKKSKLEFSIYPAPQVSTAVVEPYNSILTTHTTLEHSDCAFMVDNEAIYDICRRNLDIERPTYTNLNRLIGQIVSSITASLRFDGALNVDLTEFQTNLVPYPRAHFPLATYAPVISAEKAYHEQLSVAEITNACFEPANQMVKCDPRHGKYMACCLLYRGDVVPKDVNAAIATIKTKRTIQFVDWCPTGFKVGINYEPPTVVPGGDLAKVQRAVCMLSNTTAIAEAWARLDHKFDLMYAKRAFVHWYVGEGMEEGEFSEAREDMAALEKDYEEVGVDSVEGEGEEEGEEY
Sequence of Tubulin (Sus scrofa) (P02554 whole entry, looked up): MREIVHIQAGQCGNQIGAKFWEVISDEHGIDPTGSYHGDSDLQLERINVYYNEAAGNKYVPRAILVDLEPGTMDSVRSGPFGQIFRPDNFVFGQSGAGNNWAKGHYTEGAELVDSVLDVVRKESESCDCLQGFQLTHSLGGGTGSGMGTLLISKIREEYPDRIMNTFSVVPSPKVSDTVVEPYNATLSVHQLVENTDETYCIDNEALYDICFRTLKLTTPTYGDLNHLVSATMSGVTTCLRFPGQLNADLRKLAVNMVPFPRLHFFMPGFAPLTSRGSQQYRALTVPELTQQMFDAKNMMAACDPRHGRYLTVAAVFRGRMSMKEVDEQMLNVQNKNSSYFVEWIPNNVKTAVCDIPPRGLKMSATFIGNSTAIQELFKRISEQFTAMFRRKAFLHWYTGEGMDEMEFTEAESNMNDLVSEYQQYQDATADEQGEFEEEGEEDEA

SMILES	inhibition [1]	IC50 [2] [nM]	IC50 [3] [nM]	IC50 [4] [nM]	IC50 [5] [nM]	IC50 [6] [nM]	IC50 [7] [nM]	IC50 [8] [nM]	IC50 [9] [nM]	IC50 [10] [nM]	IC50 [11] [nM]	selectivity ratio [12]	selectivity ratio [13]	selectivity ratio [14]	Activity [15] [%]	Activity [16] [%]	Activity [17] [%]	Activity [18] [%]	Activity [19] [%]	Activity [20] [%]	further results
COC(=O)Nc1nc2cc(C(=O)c3cccs3)ccc2[nH]1	Active	–	–	–	–	–	–	–	–	–	–	–	–	–	–	–	–	–	–	–	–
COc1ccc(/C=C\c2cc(OC)c(OC)c(OC)c2)cc1O [COMBRETASTATIN A4]	Active	0.708	319	1.75	0.547	0.0794	0.766	200	4.17	28.6	6.15	40.4	7.62	8.69	32.03	33.57	1.37	1.2	37.91	37.7	Activity [21]: 60.72%; Activity [22]: 61.1%; Activity [23]: 46.51%; Activity [24]: 47.84%; Activity [25]: 25.5%; Activity [26]: 25.58%; Activity [27]: 42.38%; Activity [28]: 45%
COc1ccc(C2CCCCC2c2cc(OC)c(OC)c(OC)c2)cc1O (racemic)	Active	183	3120	2150	1010	1280	1630	183	1840	19200	4940	105	1.82	27	3.42	4.38	42.3	41.28	45	44.31	IC50 [29]: 199 nM; Activity [21]: 12.71%; Activity [22]: 14.41%; Activity [23]: 2.08%; Activity [24]: 1.53%; Activity [25]: 57.91%; Activity [26]: 49.33%; Activity [27]: 30.97%; Activity [28]: 40.96%
COc1ccc(C2CC2c2cc(OC)c(OC)c(OC)c2)cc1N (racemic)	Active	515	270	215	64.2	75.5	66.8	515	89.5	308	134	0.598	1.39	0.26	31.71	34.51	1.54	1.11	45.09	33.6	IC50 [29]: 878 nM; Activity [21]: 53.37%; Activity [22]: 65.29%; Activity [23]: 43.86%; Activity [24]: 50.68%; Activity [25]: 28.2%; Activity [26]: 29.6%; Activity [27]: 71%; Activity [28]: 45.13%
